Data set [1] is described as follows: Plasma protein binding (unknown origin). The data set is classed as ADME, cell-free. Conditions: read-out: PPB (converted).
Data set [2] deals with T1, Protein-glutamine gamma-glutamyltransferase (Homo sapiens) (UniProt P21980).
T1 sequence (whole entry): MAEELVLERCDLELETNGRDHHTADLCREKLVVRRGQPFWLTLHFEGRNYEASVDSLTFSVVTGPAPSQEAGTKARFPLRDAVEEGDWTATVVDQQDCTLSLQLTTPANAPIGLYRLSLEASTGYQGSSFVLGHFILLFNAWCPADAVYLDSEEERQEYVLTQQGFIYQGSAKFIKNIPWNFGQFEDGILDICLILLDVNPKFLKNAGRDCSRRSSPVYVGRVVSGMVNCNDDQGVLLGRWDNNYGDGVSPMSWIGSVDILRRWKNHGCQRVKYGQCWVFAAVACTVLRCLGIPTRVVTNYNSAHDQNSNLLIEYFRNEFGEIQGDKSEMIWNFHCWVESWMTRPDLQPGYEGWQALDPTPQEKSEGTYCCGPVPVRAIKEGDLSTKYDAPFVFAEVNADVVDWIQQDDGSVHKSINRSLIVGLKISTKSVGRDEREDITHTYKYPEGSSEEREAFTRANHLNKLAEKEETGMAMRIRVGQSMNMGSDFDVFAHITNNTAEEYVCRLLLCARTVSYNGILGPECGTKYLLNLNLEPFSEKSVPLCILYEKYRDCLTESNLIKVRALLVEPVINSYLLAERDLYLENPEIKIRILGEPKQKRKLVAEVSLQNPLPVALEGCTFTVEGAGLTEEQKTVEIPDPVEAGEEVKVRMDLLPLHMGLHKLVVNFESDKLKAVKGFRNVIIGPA
Description: Inhibition of GTP binding to TG2 (unknown origin) measured by GTP Gamma-S-FL BODIPY assay.

A short description of data set [3]: Plasma protein binding (unknown origin) assessed as drug recovery. The data set is classed as ADME, cell-free. Conditions: read-out: Drug recovery.
Data set [4] relates to P-gp. Description: Substrate activity at P-gp in dog MDCK cells assessed as apparent permeability across basolateral to apical membrane. The format is ADME, cell-based, Canis lupus familiaris. Conditions: MDCK-MDR1.
Data set [5] has as its target T1, Protein-glutamine gamma-glutamyltransferase (Homo sapiens). Description: Inhibition of TG2 (unknown origin) using Cbz-Glu(gamma-p-nitrophenyl ester)Gly (AL5) as substrate assessed as Kinact/Ki ratio and measured by colorimetric assay.
The subject of data set [6] is MDR1 (P-gp). Description: Apparent permeability from basolateral to apical side in dog MDCK-MDR1 cells. The format is ADME, cell-based, Canis lupus familiaris.
In data set [7] the test system is P-gp. Description: Substrate activity at P-gp in dog MDCK cells assessed as efflux ratio. The format is ADME, cell-based, Canis lupus familiaris. Conditions: MDCK-MDR1.
In data set [8] the target is T1, Protein-glutamine gamma-glutamyltransferase (Homo sapiens). Description: Inhibition of TG2 (unknown origin) using Cbz-Glu(gamma-p-nitrophenyl ester)Gly (AL5) as substrate and measured by colorimetric assay.
Data set [9] relates to MDR1 (P-gp). Description: Efflux ratio of apparent permeability in dog MDCK-MDR1 cells. The format is ADME, cell-based, Canis lupus familiaris.
Data set [10] in a line: Half-life in plasma (unknown origin). The data set is classed as ADME, cell-free.
Data set [11] deals with MDR1 (P-gp). In words: Apparent permeability from apical to basolateral side in dog MDCK-MDR1 cells. The data set is classed as ADME, cell-based, Canis lupus familiaris.
Data set [12] is described as follows: Anti-invasion activity against human SCC-13 cells assessed as inhibition of invasion incubated for 18 hrs by matrigel trans well plate assay. Conditions: SCC-13, 18 h. The data set is classed as functional, cell-based.
The subject of data set [13] is P-gp. In words: Substrate activity at P-gp in dog MDCK cells assessed as apparent permeability across apical to basolateral membrane. Conditions: MDCK-MDR1. The data set is classed as ADME, cell-based, Canis lupus familiaris.

This note sets out measurements from ChEMBL document CHEMBL5154739, “Structure-activity relationships of N-terminal variants of peptidomimetic tissue transglutaminase inhibitors” (Eur J Med Chem, 2022).

Active and inactive are the calls of the source. No cut-off for these calls is given here.

For the molecule `C=CC(=O)NCCCC[C@H](NC(=O)Cc1ccccc1F)C(=O)N1CCN(C(=O)c2cccc3ccccc23)CC1`, in [1], the fraction unbound was 0.16. Also, the inhibition result in [2] is “Active”. For the same molecule, the recovery in [3] was 86%. The Papp B→A turned out to be 2.8 ×10⁻⁶ cm/s with P-gp [4] and 18.2 ×10⁻⁶ cm/s in the data set on MDR1 (P-gp) [6]. Further, the Ratio in data set [5] was 443 10^3/M/min. Moreover, the results for the efflux ratio in the data set on P-gp [7] and with MDR1 (P-gp) [9] were 1.3 and 61.7, respectively. The same molecule gave a Kinact in data set [8] of 0.46 min⁻¹. For the same molecule, in data set [10], the half-life was 17.9 h. Moreover, the Papp A→B with MDR1 (P-gp) [11] stood at 0.29 ×10⁻⁶ cm/s; with P-gp [13] it was 2.2 ×10⁻⁶ cm/s. Further, in data set [12], the EC50 came to 77 µM.

By Papp B→A is commonly meant how fast a substance crosses the layer from the basolateral side. As usually defined, the efflux ratio is a quotient of directional permeabilities that is used to spot active efflux. By half-life is commonly meant the time in which the quantity being followed falls by half. The low end stands for fast loss, the high end for slow loss. The term Papp A→B denotes the apparent permeability from the apical to the basolateral side of a cell layer. As usually defined, the EC50 is the concentration giving half of the maximal effect.
